# Measurements reported in patent US10703748B2, “Diazanaphthalen-3-yl carboxamides and preparation and use thereof” (Samumed, LLC, priority 2017, dated 2020).
# Columns and labels:
# [1] = biological target: DYRK1A kinase (Homo sapiens, UniProt Q13627); assay: DYRK1A kinase activity (Ser/Thr 18 peptide Z-lyte FRET assay); assay type: biochemical; conditions: recombinant DYRK1A, 30 μM ATP, one hour at room temperature;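 further: kinase activity read as coumarin/fluorescein emission ratio after development step, with unphosphorylated and phosphorylated peptide forms setting 0% and 100% controls, values from dose-response curves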
# [2] = biological target: GSK3β kinase (Homo sapiens, UniProt P49841); assay: GSK3β kinase activity (Ser/Thr 09 peptide Z-lyte FRET assay); assay type: biochemical; conditions: recombinant kinase, 46 μM ATP, one hour at room temperature; read-out: EC50
# GSK3β kinase, sequence (P49841 whole entry): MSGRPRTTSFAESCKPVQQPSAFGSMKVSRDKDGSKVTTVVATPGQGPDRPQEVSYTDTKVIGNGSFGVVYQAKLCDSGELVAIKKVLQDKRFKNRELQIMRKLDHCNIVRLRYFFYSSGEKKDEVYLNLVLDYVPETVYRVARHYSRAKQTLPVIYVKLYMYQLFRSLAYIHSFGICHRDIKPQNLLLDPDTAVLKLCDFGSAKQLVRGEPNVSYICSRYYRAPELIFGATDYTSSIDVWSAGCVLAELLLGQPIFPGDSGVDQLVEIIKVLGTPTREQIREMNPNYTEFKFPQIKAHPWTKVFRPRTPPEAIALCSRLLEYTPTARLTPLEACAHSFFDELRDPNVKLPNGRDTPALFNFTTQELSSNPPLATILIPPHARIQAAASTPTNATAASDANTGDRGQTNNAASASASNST
# [3] = test system: SW480 colon carcinoma cells; assay: Cell viability assay (CellTiter-Glo); conditions: Homo sapiens; for EC50: SW480, 96 h; for inhibition at 10 µM: SW480, read-out: percent inhibition at 10 μM
# [4] = test system: Wnt-responsive Sp5-Luc reporter in SW480 colon carcinoma cells; assay: Screening assay for Wnt activity (Sp5-Luc reporter gene assay); conditions: Homo sapiens; for EC50: SW480; for inhibition at 10 µM: SW480, read-out: percent inhibition at 10 μM
# [5] = test system: IL-6; assay: IL-6 inhibition in LPS-stimulated human peripheral blood mononuclear cells (HTRF); conditions: Homo sapiens, PBMC; for EC50: 22 h; for inhibition at 10 µM: read-out: percentage in parentheses after EC50 >10
# [6] = test system: α-smooth muscle actin (aSMA) positive LL29 cells; assay: Inhibition of the fibrotic process: αSMA staining in TGF-β1 treated LL29 fibroblasts from IPF patients; conditions: Homo sapiens, Fibroblast; for EC50: 96 h; for inhibition at 10 µM: read-out: percentage in parentheses after EC50 >10
SMILES,EC50 [1],EC50 [2],EC50 [3],inhibition at 10 µM [3],EC50 [4],inhibition at 10 µM [4],EC50 [5],inhibition at 10 µM [5],EC50 [6],inhibition at 10 µM [6]
"Cc1ncc(-c2ccc3cnc(NC(=O)N4CCC(N(C)C)CC4)cc3n2)s1 [Compound 662, 4-(Dimethylamino)-N-(2-(2-methylthiazol-5-yl)-1,6-naphthyridin-7-yl) piperidine-1-carboxamide]",> 10 µM,> 10 µM,> 10 µM,17.3%,> 10 µM,26%,> 10 µM,10.5%,7.65 µM,–
"CN1CCC(C(=O)Nc2cc3nc(-c4cnsc4)ccc3cn2)CC1 [Compound 692, N-(2-(Isothiazol-4-yl)-1,6-naphthyridin-7-yl)-1-methylpiperidine-4-carboxamide]",1.01 µM,> 10 µM,> 10 µM,28.7%,> 10 µM,38.6%,6.73 µM,–,> 10 µM,3.8%
"CC(C)Nc1cncc(-c2ccc3cnc(NC(=O)c4cn(C5CCNCC5)nn4)cc3n2)n1 [Compound 862, N-(2-(6-(isopropylamino)pyrazin-2-yl)-1,6-naphthyridin-7-yl)-1-(piperidin-4-yl)-1H-1,2,3-triazole-4-carboxamide]",0.203 µM,> 10 µM,4.38 µM,–,3.97 µM,–,> 10 µM,5.6%,5.03 µM,–
"CC(C)Nc1cncc(-c2ccc3cnc(NC(=O)c4cn(C5CCN(CCF)CC5)nn4)cc3n2)n1 [Compound 863, 1-(1-(2-fluoroethyl)piperidin-4-yl)-N-(2-(6-(isopropylamino)pyrazin-2-yl)-1,6-naphthyridin-7-yl)-1H-1,2,3-triazole-4-carboxamide]",0.388 µM,> 10 µM,> 10 µM,27.5%,> 10 µM,29.7%,> 10 µM,7%,> 10 µM,41%
"O=C(Nc1cc2nc(-c3cncc(OCC4CNC4)n3)ccc2cn1)c1ccc(F)cc1 [Compound 892, N-(2-(6-(Azetidin-3-ylmethoxy)pyrazin-2-yl)-1,6-naphthyridin-7-yl)-4-fluorobenzamide]",0.142 µM,> 10 µM,2.06 µM,–,4.28 µM,–,> 10 µM,2.5%,3.98 µM,–
"Cn1cc(-c2ccc3cnc(NC(=O)[C@H]4CCCN4)nc3c2)cn1 [Compound 969, (R)—N-(7-(1-Methyl-1H-pyrazol-4-yl)quinazolin-2-yl)pyrrolidine-2-carboxamide]",> 10 µM,> 10 µM,> 10 µM,16.3%,> 10 µM,4.2%,> 10 µM,4.1%,> 10 µM,40.2%
"CC(C(=O)Nc1ncc2ccc(-c3cnn(C)c3)cc2n1)N1CCCCC1 (stereo not drawn) [Compound 978, N-(7-(1-Methyl-1H-pyrazol-4-yl)quinazolin-2-yl)-2-(piperidin-1-yl)propanamide]",0.171 µM,0.087 µM,> 10 µM,50%,> 10 µM,37.2%,> 10 µM,6.9%,2.73 µM,–
"Cn1cc(-c2ccc3cnc(NC(=O)C4CCN(S(C)(=O)=O)CC4)nc3c2)cn1 [Compound 979, N-(7-(1-methyl-1H-pyrazol-4-yl)quinazolin-2-yl)-1-(methylsulfonyl)piperidine-4-carboxamide]",> 10 µM,> 10 µM,> 10 µM,16.7%,> 10 µM,20.3%,> 10 µM,6.4%,> 10 µM,23.2%
"CN1CCCN(CC(=O)Nc2ncc3ccc(-c4cnn(C)c4)cc3n2)CC1 [Compound 1013, 2-(4-Methyl-1,4-diazepan-1-yl)-N-(7-(1-methyl-1H-pyrazol-4-yl)quinazolin-2-yl)acetamide]",0.075 µM,0.532 µM,> 10 µM,10.5%,> 10 µM,0%,> 10 µM,3.1%,> 10 µM,12.4%
"CC(C)CN1CCC(CC(=O)Nc2ncc3ccc(-c4cnn(C)c4)cc3n2)C1 (stereo not drawn) [Compound 1029, 2-(1-Isobutylpyrrolidin-3-yl)-N-(7-(1-methyl-1H-pyrazol-4-yl)quinazolin-2-yl)acetamide]",0.045 µM,0.238 µM,> 10 µM,38.5%,2.91 µM,–,> 10 µM,3.2%,> 10 µM,28%
